Results reported in PubChem BioAssay AID1963832 (Molecular Pharmacology Branch, DTP, NCI, 2024).

System: 885724-159-R-J1-PDC complex spheroid viability
Test: Anticancer human tumor 885724-159-R-J1-PDC patient-derived pancreatic adenocarcinoma cell line growth inhibition [POLQ]
Conditions: for IC50: curve of first compound; for viability, T/C: stronger effect = lower value
Method in brief: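 Growth inhibition in 3D: complex spheroids (tumor PDC, HUVEC, MSC) treated with POLQ inhibitor combinations; where Cmax unknown, highest tested concentration 10 microM, except SN-38 at 1 microM.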

[1] = second compound 0.0316 µM, first compound 0.0316 µM
[2] = second compound 0.0316 µM, first compound 0.1 µM
[3] = second compound 0.0316 µM, first compound 0.316 µM
[4] = second compound 0.0316 µM, first compound 1 µM
[5] = second compound 0.1 µM, first compound 0.0316 µM
[6] = second compound 0.1 µM, first compound 0.1 µM
[7] = second compound 0.1 µM, first compound 0.316 µM
[8] = second compound 0.1 µM, first compound 1 µM
[9] = second compound 0.316 µM, first compound 0.0316 µM
[10] = second compound 0.316 µM, first compound 0.1 µM
[11] = second compound 0.316 µM, first compound 0.316 µM
[12] = second compound 0.316 µM, first compound 1 µM
[13] = second compound 1 µM, first compound 0.0316 µM
[14] = second compound 1 µM, first compound 0.1 µM
[15] = second compound 1 µM, first compound 0.316 µM
[16] = second compound 1 µM, first compound 1 µM
[17] = second compound 3.16 µM, first compound 0.0316 µM
[18] = second compound 3.16 µM, first compound 0.1 µM
[19] = second compound 3.16 µM, first compound 0.316 µM
[20] = second compound 3.16 µM, first compound 1 µM
[21] = second compound 10 µM, first compound 0.0316 µM
[22] = second compound 10 µM, first compound 0.1 µM
[23] = second compound 10 µM, first compound 0.316 µM
[24] = second compound 10 µM, first compound 1 µM
[25] = second compound 0.0316 µM, first compound 3.16 µM
[26] = second compound 0.0316 µM, first compound 10 µM
[27] = second compound 0.1 µM, first compound 3.16 µM
[28] = second compound 0.1 µM, first compound 10 µM
[29] = second compound 0.316 µM, first compound 3.16 µM
[30] = second compound 0.316 µM, first compound 10 µM
[31] = second compound 1 µM, first compound 3.16 µM
[32] = second compound 1 µM, first compound 10 µM
[33] = second compound 3.16 µM, first compound 3.16 µM
[34] = second compound 3.16 µM, first compound 10 µM
[35] = second compound 10 µM, first compound 3.16 µM
[36] = second compound 10 µM, first compound 10 µM
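Also: spheroids exposed to compounds for 7 days.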

For `COc1cccc(OCCCN)c1-c1cc(Nc2cnc(C#N)cn2)n[nH]1` + Nc1ccc(C#CCN(C(=O)Cc2ncc(C(F)(F)F)cc2C(F)(F)F)c2ccc(F)cc2)nn1, the IC50 (second compound 0.0316 µM) was 0.0153 µM, the IC50 (second compound 0.1 µM) was 0.0138 µM and the IC50 (second compound 0.316 µM) was 0.0142 µM. For the same compound, the IC50 (second compound 1 µM) was 0.0155 µM, the IC50 (second compound 3.16 µM) was 0.0182 µM and the IC50 (second compound 10 µM) was over 1 µM. It also gave a viability, T/C (second compound 0.0316 µM, first compound 0.00316 µM) of 79%, a viability, T/C (second compound 0.0316 µM, first compound 0.01 µM) of 52% and a viability, T/C [1] of 46.1%. For the same compound, the viability, T/C [2] was 46%, the viability, T/C [3] was 45.7% and the viability, T/C [4] was 47.7%. For the same compound, the viability, T/C (second compound 0.1 µM, first compound 0.00316 µM) was 74%, the viability, T/C (second compound 0.1 µM, first compound 0.01 µM) was 53% and the viability, T/C [5] was 43.2%. The viability, T/C [6] was 43.3%, the viability, T/C [7] was 43.3% and the viability, T/C [8] was 48.1%. For the same compound, the viability, T/C (second compound 0.316 µM, first compound 0.00316 µM) was 77.3%, the viability, T/C (second compound 0.316 µM, first compound 0.01 µM) was 51.5% and the viability, T/C [9] was 47.3%. It also gave a viability, T/C [10] of 42.9%, a viability, T/C [11] of 43% and a viability, T/C [12] of 48.6%. It also gave a viability, T/C (second compound 1 µM, first compound 0.00316 µM) of 73.7%, a viability, T/C (second compound 1 µM, first compound 0.01 µM) of 51.1% and a viability, T/C [13] of 50.1%. The viability, T/C [14] was 41.3%, the viability, T/C [15] was 41% and the viability, T/C [16] was 46.7%. The viability, T/C (second compound 3.16 µM, first compound 0.00316 µM) was 68.4%, the viability, T/C (second compound 3.16 µM, first compound 0.01 µM) was 52.3% and the viability, T/C [17] was 46.6%. It also gave a viability, T/C [18] of 44%, a viability, T/C [19] of 53.6% and a viability, T/C [20] of 48.1%. It also gave a viability, T/C (second compound 10 µM, first compound 0.00316 µM) of 72.3%, a viability, T/C (second compound 10 µM, first compound 0.01 µM) of 57.5% and a viability, T/C [21] of 46.1%. The viability, T/C [22] was 49.7%, the viability, T/C [23] was 53.2% and the viability, T/C [24] was 51.2%.

Work on `O=C(c1cc(Cc2n[nH]c(=O)c3ccccc23)ccc1F)N1CCN(C(=O)C2CC2)CC1` + Nc1ccc(C#CCN(C(=O)Cc2ncc(C(F)(F)F)cc2C(F)(F)F)c2ccc(F)cc2)nn1 yielded an IC50 (second compound 0.0316 µM) of over 10 µM, an IC50 (second compound 0.1 µM) of over 10 µM and an IC50 (second compound 0.316 µM) of over 10 µM. The IC50 (second compound 1 µM) was over 10 µM, the IC50 (second compound 3.16 µM) was over 10 µM and the IC50 (second compound 10 µM) was over 10 µM. It also gave a viability, T/C [1] of 90.7%, a viability, T/C [2] of 97.2% and a viability, T/C [3] of 95.1%. The viability, T/C [4] was 88.2%, the viability, T/C [25] was 89.4% and the viability, T/C [26] was 80.4%. For the same compound, the viability, T/C [5] was 95%, the viability, T/C [6] was 94.5% and the viability, T/C [7] was 85.7%. The viability, T/C [8] was 96.7%, the viability, T/C [27] was 84.1% and the viability, T/C [28] was 77.6%. For the same compound, the viability, T/C [9] was 85.4%, the viability, T/C [10] was 94.5% and the viability, T/C [11] was 100%. It also gave a viability, T/C [12] of 87.8%, a viability, T/C [29] of 86.2% and a viability, T/C [30] of 75.8%. The viability, T/C [13] was 101%, the viability, T/C [14] was 90.6% and the viability, T/C [15] was 84.6%. It also gave a viability, T/C [16] of 99%, a viability, T/C [31] of 88.7% and a viability, T/C [32] of 84%. It also gave a viability, T/C [17] of 98%, a viability, T/C [18] of 92% and a viability, T/C [19] of 84.7%. The viability, T/C [20] was 82%, the viability, T/C [33] was 88.1% and the viability, T/C [34] was 80.8%. The viability, T/C [21] was 102%, the viability, T/C [22] was 94.3% and the viability, T/C [23] was 87.4%. It also gave a viability, T/C [24] of 94.1%, a viability, T/C [35] of 95.6% and a viability, T/C [36] of 75.6%.

`O=C(c1cc(Cc2n[nH]c(=O)c3ccccc23)ccc1F)N1CCN(C(=O)C2CC2)CC1` + Cc1cccc(N(C)C(=O)C2C(O)CCN2c2nc(C)cc(C(F)(F)F)c2C#N)c1 showed an IC50 (second compound 0.0316 µM) of over 10 µM, an IC50 (second compound 0.1 µM) of over 10 µM and an IC50 (second compound 0.316 µM) of over 10 µM. The IC50 (second compound 1 µM) was over 10 µM, the IC50 (second compound 3.16 µM) was over 10 µM and the IC50 (second compound 10 µM) was over 10 µM. For the same compound, the viability, T/C [1] was 85.9%, the viability, T/C [2] was 99.1% and the viability, T/C [3] was 97.2%. For the same compound, the viability, T/C [4] was 94.2%, the viability, T/C [25] was 94.6% and the viability, T/C [26] was 76.3%. It also gave a viability, T/C [5] of 97.3%, a viability, T/C [6] of 104% and a viability, T/C [7] of 100%. It also gave a viability, T/C [8] of 102%, a viability, T/C [27] of 94.7% and a viability, T/C [28] of 83.1%. The viability, T/C [9] was 104%, the viability, T/C [10] was 91.7% and the viability, T/C [11] was 91.9%. For the same compound, the viability, T/C [12] was 99.6%, the viability, T/C [29] was 98% and the viability, T/C [30] was 75.9%. The viability, T/C [13] was 109%, the viability, T/C [14] was 84.3% and the viability, T/C [15] was 89.1%. The viability, T/C [16] was 94.1%, the viability, T/C [31] was 94.6% and the viability, T/C [32] was 86.1%. The viability, T/C [17] was 92%, the viability, T/C [18] was 89.7% and the viability, T/C [19] was 99.1%. It also gave a viability, T/C [20] of 89.2%, a viability, T/C [33] of 103% and a viability, T/C [34] of 82.9%. It also gave a viability, T/C [21] of 98%, a viability, T/C [22] of 109% and a viability, T/C [23] of 109%. It also gave a viability, T/C [24] of 86.1%, a viability, T/C [35] of 104% and a viability, T/C [36] of 79.9%.
